Laboratory results: ChEMBL document CHEMBL3259803, “2012 Division of medicinal chemistry award address. Trekking the cannabinoid road: a personal perspective” (J Med Chem, 2014)

Target: Cannabinoid receptor 2 (Homo sapiens) (UniProt P34972)
Experiment: Inhibition of [3H]CP-55940 binding to N-terminal FLAG-tagged/C-terminal 6His-tagged recombinant human CB2 receptor overexpressed in baculovirus infected insect Sf21 cells assessed as reduction of receptor Bmax at 10 nM after 1 hr relative to control

Chain of Cannabinoid receptor 2 (Homo sapiens) (P34972 whole entry): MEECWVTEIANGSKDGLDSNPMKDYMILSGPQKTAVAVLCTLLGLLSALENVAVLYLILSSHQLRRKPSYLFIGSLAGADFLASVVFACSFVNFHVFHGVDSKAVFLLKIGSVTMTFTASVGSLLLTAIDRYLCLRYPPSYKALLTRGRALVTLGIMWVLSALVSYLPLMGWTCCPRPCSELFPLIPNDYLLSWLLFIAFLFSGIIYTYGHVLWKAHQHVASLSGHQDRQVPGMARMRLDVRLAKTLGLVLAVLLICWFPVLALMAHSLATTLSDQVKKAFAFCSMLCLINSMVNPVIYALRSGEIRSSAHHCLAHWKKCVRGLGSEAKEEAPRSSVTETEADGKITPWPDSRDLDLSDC

SMILES: CC(C)(CCCCCCN=C=S)c1ccc2c(c1)OC(C)(C)[C@@H]1CC[C@@H](CO)C[C@@H]21
- inhibition: 75%
